# Reference: paper PMC11940194, “Synthesis, Antiproliferative Activity, and ADME Profiling of Novel Racemic and Optically Pure Aryl-Substituted Purines and Purine Bioisosteres” (Biomolecules, 2025)
# Key:
# [1] = Hydrolytic stability in aqueous buffer (UV/Vis); format: physicochemical; settings: phosphate buffer/DMSO 99:1, pH 7.4, 1 × 10⁻⁴ mol dm⁻³, UV/Vis spectra over 24 h
# From the text: Solvents and chemicals, including starting purines and purine bioisosters 1–5, as well as para-substituted 2-phenyloxiranes 11–15 and phenacyl bromide 21–25, were purchased from Sigma-Aldrich (St. Louis, MO, USA), Alfa Aesar (Haverhill, MA, USA), and Fisher Scientific International (Pittsburgh, PA, USA). The progress of all reactions was monitored by thin layer chromatography on pre-coated Merck (Darmstadt, Germany) silica gel plates 60F254. The synthesized compounds were purified via column chromatography using Fluka (Buchs, Switzerland) silica gel (0.063−0.2 mm) and the appropriate solvent. All NMR spectra were recorded using a Bruker 300, 400, and 600 MHz NMR spectrometer (Bruker Biospin, Rheinstetten, Germany) in deuterated DMSO solutions, with TMS as the internal standard. The melting points of all newly synthesized compounds were determined using a Koffler (Reichert, Vienna) hot stage microscope. The ^1H (δ/ppm) and ^13C NMR (δ/ppm) spectra of compounds 26a,b–49a,b can be found in the Supporting Information (Figures S1–S48). The purity of all newly synthesized compounds was determined by elemental analysis and the elemental analysis results are within 0.5% of the theoretical values. The UV/Vis absorption spectra of compounds 40a, 45a, and 49b were measured at a concentration of 1 × 10⁻⁴ mol dm⁻³ in phosphate buffer and DMSO (99:1, v/v) at pH 7.4 using a Varian Cary 50 spectrophotometer in double-beam mode at 25 °C.
# Selected 6-chloropurine (40a), 4-chloropyrrolo[2,3-d]pyrimidine (45a), and 4-chloroimidazo[4,5-c]pyridine (49b) with significant antiproliferative activity were examined for hydrolytic stability in an aqueous buffer solution.
# 2. UV/Vis absorption spectra of selected compounds
# Figure S49. UV/Vis absorption spectra of compounds 40a (a), 45a (b), and 49b (c) recorded in phosphate buffer with 1% DMSO (99:1, v/v) at pH 7.4 (c = 1 × 10⁻⁴ mol dm⁻³). Spectra were measured immediately after sample preparation and after 24 hours to evaluate spectral stability over time.
# (1 picture or pasted object on this page, not shown here)
# [2] = Metabolic stability in mouse liver microsomes; format: in vitro ADME
# From the text: Mouse liver microsomes were obtained from Corning Life Sciences (Corning, NY, USA). DMSO, nicotinamide adenine dinucleotide phosphate (NADP), glucose-6-phosphate, glucose-6-phosphate dehydrogenase, magnesium chloride, propranolol, caffeine, diclofenac, and phosphate-buffered saline (PBS) were purchased from Sigma (St. Louis, MO, USA). Acetonitrile (ACN) and methanol (MeOH) were obtained from Merck (Darmstadt, Germany). Testosterone was purchased from Steraloids (Newport, RI, USA). Metabolic stability was assessed in mouse liver microsomes. Compounds (final concentration of 1 µM, 0.03% DMSO v/v) were incubated in duplicate in phosphate buffer (50 mM, pH 7.4) at 37 °C together with mouse liver microsomes in the absence and presence of the NADPH cofactor (0.5 mM nicotinamide adenine dinucleotide phosphate, 5 mM glucose-6-phosphate, 1.5 U/mL glucose-6-phosphate dehydrogenase, and 0.5 mM magnesium chloride). Incubation and sampling were performed on a Freedom EVO 200 (Tecan, Männedorf, CH, Switzerland) at […], 10, 20, 30, 45, and 60 min. The reaction was quenched using 3 volumes of a mixture of ACN/MeOH (2:1) containing internal standard (diclofenac), centrifuged, and the supernatants were analyzed using LC-MS/MS. The metabolic activity of the microsomes was verified via simultaneous analysis of several controls including testosterone, propranolol, and caffeine. The in vitro half-life (t1/2) was calculated using GraphPad Prism (v9.0 software) non-linear regression of % of parent compound remaining versus time. In vitro clearance, expressed as µL/min/mg, was estimated from the in vitro half-life (t1/2) and normalized for the protein amount in the incubation mixture, assuming 52.5 mg of protein per gram of liver and using constant values for mouse liver weight/body weight [87.5 g/kg] and mouse liver blood flow (LBF) [131 mL/min/kg].
# All samples were quantified using tandem mass spectrometry coupled to liquid chromatography. Samples were analyzed on a Sciex API4000 Triple Quadrupole Mass Spectrometer (Sciex, Division of MDS Inc., Toronto, Canada) coupled to a Shimadzu Nexera X2 UHPLC frontend (Kyoto, Japan). Samples were injected onto a UHPLC column (HALO2 C18, 2.1 × 20 mm, 2 µm or Luna Omega 1.6 µm Polar C18 100A, 30 × 2.1 mm) and eluted with a gradient at 50 °C. The mobile phase was composed of acetonitrile/water mixture (9/1, with 0.1% formic acid) and 0.1% formic acid in deionized water. The flow rate was 0.7 mL/min under gradient conditions, leading to a total run time of 1.5–2 min. A positive ion mode with turbo spray, an ion source temperature of 550 °C, and a dwell time of 150 ms were utilized for mass spectrometric detection. Quantitation was performed using multiple reaction monitoring (MRM) at the specific transitions for each compound.
# [3] = system: breast adenocarcinoma (MCF7) cells; test: Antiproliferative MTT assay, MCF-7; format: cell-based, human; settings: for IC50: Homo sapiens, MCF7, 72 h incubation, MTT, mean ± SD
# Outline: (§1)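 Human cancer lines and HFF-1 fibroblasts, cultured at 37 °C under 5% CO2 in serum-supplemented medium, were treated for 72 h over a 0.01–100 µM range. MTT gave growth rate, and 5-Fluorouracil served as reference.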
# [4] = system: colorectal carcinoma (HT-29) cells; test: Antiproliferative MTT assay, HT-29; format: cell-based, human; settings: Homo sapiens, HT-29, 72 h, 72 h incubation, MTT; mean ± SD
# Outline: as §1
Structure (SMILES),hydrolytic stability [1],"Clearance Values (CL) ([2]; predicted in vivo hepatic clearance from mouse liver microsome t1/2, 1 µM compound) [%]",IC50 [3] [µM],SI (MCF-7) ([3]; SI = [IC50 HFF]/[IC50 MCF-7]),IC50 [4] [µM],Clearance Class. ([2]; mouse liver microsomes)
"OCC(c1ccc(C(F)(F)F)cc1)n1cc(Cn2ccc3c(Cl)ncnc32)nn1 (stereo not drawn) [Compound 45a, 4-Chloro-7-((1-(2-hydroxy-1-(4-(trifluoromethyl)phenyl)ethyl)-1H-1,2,3-triazol-4-yl)methyl)-7H-pyrrolo[2,3-d]pyrimidine]",hydrolytically stable,54,0.5 ± 0.1,40,26 ± 1.2,–
"OC(Cn1cc(Cn2cnc3c(Cl)nccc32)nn1)c1ccc(Br)cc1 (stereo not drawn) [Compound 49b, 4-Chloro-1-((1-(2-hydroxy-2-(4-bromophenyl)ethyl)-1H-1,2,3-triazol-4-yl)methyl)-1H-imidazo[4,5-c]pyridine]",hydrolytically stable,–,46,–,10 ± 3.2,LOW (<30% low)
